Our source for the MIC values is US20170305943A1, “COMPOUNDS FOR THE TREATMENT OF BACTERIAL INFECTIONS” (priority 2014, published 2017).

Values after ≈ are worked out from the molar mass of the structure shown.

The test system of this experiment is Clostridium difficile (Isolate ID ATCC 9689). In words: Bacterial Assay: Determination of Antibacterial Activity (MIC, broth microdilution or agar dilution). The experiment is classed as cell-based. To be noted: Clostridioides difficile, ATCC9689, 48 h, read-out: C. difficile MIC Activity Range. As to the method:
Bacterial Assay: Determination of Antibacterial Activity Compounds of the invention were tested for antimicrobial activity by susceptibility testing in liquid or on solid media. Minimum inhibitory concentrations (MICs) for compounds against each strain were determined by the broth microdilution or agar dilution method according to the guidelines of the Clinical Laboratories and Standards Institute, formerly the National Committee for Clinical Laboratory Standards (Clinical Laboratories and Standards Institute. Methods for Dilution Antimicrobial Susceptibility Tests for Bacteria That Grow Anaerobically; Approved Standard-Seventh Edition. Document M11-A7, CLSI, Wayne, Pa., 2007, Clinical Laboratories and Standards Institute). Briefly MICs were determined by visible inspection after 48 hours of growth in the presence of compounds, cultures were grown at 37° C. in anaerobic gas packs using reinforced clostridial medium supplemented with 0.1% defribrinated horse blood. The bacterial strains tested include C. difficile (Clostridium difficile (Isolate ID ATCC 9689)) (Table 2) and two drug resistant clinical isolates (Clostridium difficile (Isolate ID BI-9) and Clostridium difficile (Isolate ID 027-01) (Table 3).
MICs were determined to be within the activity ranges “A” activity≦1.01 μg/mL; “B” activity>1.0 μg/mL-4.0 μg/mL; “C” activity>4.0 μg/mL-16 μg/mL
On the technique in general: In broth dilution the organism is exposed to a series of concentrations in liquid medium.
By MIC is commonly meant the lowest concentration that inhibits growth of the organism. Regarding `NC(=O)c1c(F)ccc(O[C@H](COC(=O)CCC(=O)O)c2nc(-c3ccc(C(F)(F)F)cc3)c(Br)o2)c1F` [Compound 70, 4-[(2R)-2-{5-bromo-4-[4-(trifluoromethyl)phenyl]-1,3-oxazol-2-yl}-2-(3-carbamoyl-2,4-difluorophenoxy)ethoxy]-4-oxobutanoic acid], the MIC was less than 1.01 µg/mL.

`CN(Cc1ccncc1)C(=O)OCC(Oc1ccc(F)c(C(N)=O)c1F)c1nc(-c2ccc(C(F)(F)F)cc2)c(Br)o1` (centres unmarked) [Compound 71, 2-{5-bromo-4-[4-(trifluoromethyl)phenyl]-1,3-oxazol-2-yl}-2-(3-carbamoyl-2,4-difluorophenoxy)ethyl methyl(pyridin-4-ylmethyl)carbamate]: the minimal inhibitory concentration (MIC) is 4 to 16 µg/mL (≈ 6.1 to 24.4 µM).

Turning to `Cn1ccc(CNC(=O)OCC(Oc2ccc(F)c(C(N)=O)c2F)c2nc(-c3ccc(C(F)(F)F)cc3)c(Br)o2)n1` (centres unmarked) [Compound 72, 2-{5-bromo-4-[4-(trifluoromethyl)phenyl]-1,3-oxazol-2-yl}-2-(3-carbamoyl-2,4-difluorophenoxy)ethyl [(1-methyl-1H-pyrazol-3-yl)methyl]carbamate], the minimum inhibitory concentration (MIC) was less than 1.01 µg/mL.

With `Cn1nccc1CNC(=O)OCC(Oc1ccc(F)c(C(N)=O)c1F)c1nc(-c2ccc(C(F)(F)F)cc2)c(Br)o1` (centres unmarked) [Compound 73, 2-{5-bromo-4-[4-(trifluoromethyl)phenyl]-1,3-oxazol-2-yl}-2-(3-carbamoyl-2,4-difluorophenoxy)ethyl [(1-methyl-1H-pyrazo1-5-yl)methyl]carbamate], the minimal inhibitory concentration (MIC) was less than 1.01 µg/mL.

Consider `CN(Cc1ccncn1)C(=O)OCC(Oc1ccc(F)c(C(N)=O)c1F)c1nc(-c2ccc(C(F)(F)F)cc2)c(Br)o1` (centres unmarked) [Compound 75, 2-{5-bromo-4-[4-(trifluoromethyl)phenyl]-1,3-oxazol-2-yl}-2-(3-carbamoyl-2,4-difluorophenoxy)ethyl methyl(pyrimidin-4-ylmethyl)carbamate], for which the MIC lay in the range of 1 to 4 µg/mL (≈ 1.52 to 6.09 µM).

As to `Cn1cc(CNC(=O)OCC(Oc2ccc(F)c(C(N)=O)c2F)c2nc(-c3ccc(C(F)(F)F)cc3)c(Br)o2)cn1` (centres unmarked) [Compound 76, 2-{5-bromo-4-[4-(trifluoromethyl)phenyl]-1,3-oxazol-2-yl}-2-(3-carbamoyl-2,4-difluorophenoxy)ethyl [(1-methyl-1H-pyrazol-4-yl)methyl]carbamate], the MIC was less than 1.01 µg/mL.

Consider `Cc1cccc(CNC(=O)OCC(Oc2ccc(F)c(C(N)=O)c2F)c2nc(-c3ccc(C(F)(F)F)cc3)c(Br)o2)n1` (centres unmarked) [Compound 77, 2-{5-bromo-4-[4-(trifluoromethyl)phenyl]-1,3-oxazol-2-yl}-2-(3-carbamoyl-2,4-difluorophenoxy)ethyl [(6-methylpyridin-2-yl)methyl]carbamate], for which the MIC fell in the range of 1 to 4 µg/mL (≈ 1.53 to 6.1 µM).

As to `Cc1cc(CNC(=O)OCC(Oc2ccc(F)c(C(N)=O)c2F)c2nc(-c3ccc(C(F)(F)F)cc3)c(Br)o2)ccn1` (centres unmarked) [Compound 78, 2-{5-bromo-4-[4-(trifluoromethyl)phenyl]-1,3-oxazol-2-yl}-2-(3-carbamoyl-2,4-difluorophenoxy)ethyl [(2-methylpyridin-4-yl)methyl]carbamate], the minimum inhibitory concentration (MIC) is less than 1.01 µg/mL.

On to `Cn1ccnc1CNC(=O)OCC(Oc1ccc(F)c(C(N)=O)c1F)c1nc(-c2ccc(C(F)(F)F)cc2)c(Br)o1` (centres unmarked) [Compound 79, 2-{5-bromo-4-[4-(trifluoromethyl)phenyl]-1,3-oxazol-2-yl}-2-(3-carbamoyl-2,4-difluorophenoxy)ethyl [(1-methyl-1H-imidazol-2-yl)methyl]carbamate], for which the MIC was 4 to 16 µg/mL (≈ 6.21 to 24.8 µM).

For the compound `Cc1nn(C)cc1CNC(=O)OCC(Oc1ccc(F)c(C(N)=O)c1F)c1nc(-c2ccc(C(F)(F)F)cc2)c(Br)o1` (centres unmarked) [Compound 81, 2-{5-bromo-4-[4-(trifluoromethyl)phenyl]-1,3-oxazol-2-yl}-2-(3-carbamoyl-2,4-difluorophenoxy)ethyl [(1,3-dimethyl-1H-pyrazol-4-yl)methyl]carbamate], the MIC was less than 1.01 µg/mL.

Turning to `Cc1c(CNC(=O)OCC(Oc2ccc(F)c(C(N)=O)c2F)c2nc(-c3ccc(C(F)(F)F)cc3)c(Br)o2)cnn1C` (centres unmarked) [Compound 82, 2-{5-bromo-4-[4-(trifluoromethyl)phenyl]-1,3-oxazol-2-yl}-2-(3-carbamoyl-2,4-difluorophenoxy)ethyl [(1,5-dimethyl-1H-pyrazol-4-yl)methyl]carbamate], the MIC is less than 1.01 µg/mL.

Turning to `COc1ccc(CNC(=O)OCC(Oc2ccc(F)c(C(N)=O)c2F)c2nc(-c3ccc(C(F)(F)F)cc3)c(Br)o2)cn1` (centres unmarked) [Compound 83, 2-{5-bromo-4-[4-(trifluoromethyl)phenyl]-1,3-oxazol-2-yl}-2-(3-carbamoyl-2,4-difluorophenoxy)ethyl [(6-methoxypyridin-3-yl)methyl]carbamate], the MIC is less than 1.01 µg/mL.

For the compound `COc1cc(CNC(=O)OCC(Oc2ccc(F)c(C(N)=O)c2F)c2nc(-c3ccc(C(F)(F)F)cc3)c(Br)o2)ccn1` (centres unmarked) [Compound 84, 2-{5-bromo-4-[4-(trifluoromethyl)phenyl]-1,3-oxazol-2-yl}-2-(3-carbamoyl-2,4-difluorophenoxy)ethyl [(2-methoxypyridin-4-yl)methyl]carbamate], the MIC is less than 1.01 µg/mL.

`Cn1c(CNC(=O)OCC(Oc2ccc(F)c(C(N)=O)c2F)c2nc(-c3ccc(C(F)(F)F)cc3)c(Br)o2)nc2ccccc21` (centres unmarked) [Compound 85, 2-{5-bromo-4-[4-(trifluoromethyl)phenyl]-1,3-oxazol-2-yl}-2-(3-carbamoyl-2,4-difluorophenoxy)ethyl [(1-methyl-1H-benzimidazol-2-yl)methyl]carbamate]: the minimal inhibitory concentration (MIC) lay in the range of 1 to 4 µg/mL (≈ 1.44 to 5.76 µM).

Consider `Cc1ccc(CNC(=O)OCC(Oc2ccc(F)c(C(N)=O)c2F)c2nc(-c3ccc(C(F)(F)F)cc3)c(Br)o2)n1C` (centres unmarked) [Compound 86, 2-{5-bromo-4-[4-(trifluoromethyl)phenyl]-1,3-oxazol-2-yl}-2-(3-carbamoyl-2,4-difluorophenoxy)ethyl [(1,5-dimethyl-1H-pyrrol-2-yl)methyl]carbamate], for which the MIC lay in the range of 1 to 4 µg/mL (≈ 1.52 to 6.08 µM).

For `Cc1cc(CNC(=O)OCC(Oc2ccc(F)c(C(N)=O)c2F)c2nc(-c3ccc(C(F)(F)F)cc3)c(Br)o2)n(C)n1` (centres unmarked) [Compound 87, 2-{5-bromo-4-[4-(trifluoromethyl)phenyl]-1,3-oxazol-2-yl}-2-(3-carbamoyl-2,4-difluorophenoxy)ethyl [(1,3-dimethyl-1H-pyrazol-5-yl)methyl]carbamate], the minimum inhibitory concentration (MIC) lay within 1 to 4 µg/mL (≈ 1.52 to 6.08 µM).

For the compound `Cc1cc(CNC(=O)OCC(Oc2ccc(F)c(C(N)=O)c2F)c2nc(-c3ccc(C(F)(F)F)cc3)c(Br)o2)nn1C` (centres unmarked) [Compound 88, 2-{5-bromo-4-[4-(trifluoromethyl)phenyl]-1,3-oxazol-2-yl}-2-(3-carbamoyl-2,4-difluorophenoxy)ethyl [(1,5-dimethyl-1H-pyrazol-3-yl)methyl]carbamate], the MIC was in the range of 1 to 4 µg/mL (≈ 1.52 to 6.08 µM).

For the compound `Cc1ccc(CNC(=O)OCC(Oc2ccc(F)c(C(N)=O)c2F)c2nc(-c3ccc(C(F)(F)F)cc3)c(Br)o2)cn1` (centres unmarked) [Compound 89, 2-{5-bromo-4-[4-(trifluoromethyl)phenyl]-1,3-oxazol-2-yl}-2-(3-carbamoyl-2,4-difluorophenoxy)ethyl [(6-methylpyridin-3-yl)methyl]carbamate], the MIC is less than 1.01 µg/mL.

With `Cc1ncccc1CNC(=O)OCC(Oc1ccc(F)c(C(N)=O)c1F)c1nc(-c2ccc(C(F)(F)F)cc2)c(Br)o1` (centres unmarked) [Compound 90, 2-{5-bromo-4-[4-(trifluoromethyl)phenyl]-1,3-oxazol-2-yl}-2-(3-carbamoyl-2,4-difluorophenoxy)ethyl [(2-methylpyridin-3-yl)methyl]carbamate], the MIC is less than 1.01 µg/mL.

Turning to `Cc1cnccc1CNC(=O)OCC(Oc1ccc(F)c(C(N)=O)c1F)c1nc(-c2ccc(C(F)(F)F)cc2)c(Br)o1` (centres unmarked) [Compound 91, 2-{5-bromo-4-[4-(trifluoromethyl)phenyl]1,3-oxazol-2-yl}-2-(3-carbamoyl-2,4-difluorophenoxy)ethyl [(3-methylpyridin-4-yl)methyl]carbamate], the minimum inhibitory concentration (MIC) is less than 1.01 µg/mL.

With `NC(=O)c1c(F)ccc(OC(COC(=O)NCCn2ccccc2=O)c2nc(-c3ccc(C(F)(F)F)cc3)c(Br)o2)c1F` (centres unmarked) [Compound 92, 2-{5-bromo-4-[4-(trifluoromethyl)phenyl]-1,3-oxazol-2-yl}-2-(3-carbamoyl-2,4-difluorophenoxy)ethyl [2-(2-oxopyridin-1(2H)-yl)ethyl]carbamate], the MIC was in the range of 1 to 4 µg/mL (≈ 1.49 to 5.96 µM).

Turning to `NC(=O)c1c(F)ccc(OC(CO)c2nc(-c3ccc(F)cc3F)c(Br)o2)c1F` (centres unmarked) [Compound 99, 3-{1-[5-bromo-4-(2,4-difluorophenyl)-1,3-oxazol-2-yl]-2-hydroxyethoxy}-2,6-difluorobenzamide], the minimum inhibitory concentration (MIC) is less than 1.01 µg/mL.

With `NC(=O)c1c(F)ccc(OC(CO)c2nc(-c3ccc(Br)s3)c(Br)o2)c1F` (centres unmarked) [Compound 100, 3-{1-[5-bromo-4-(5-bromothiophen-2-yl)-1,3-oxazol-2-yl]-2-hydroxyethoxy}-2,6-difluorobenzamide], the MIC was in the range of 1 to 4 µg/mL (≈ 1.91 to 7.63 µM).

For `CNCNC(=O)c1c(F)ccc(OCc2nc3cc(Cl)cnc3s2)c1F` [Compound 103], the minimum inhibitory concentration (MIC) was 4 to 16 µg/mL (≈ 10 to 40.1 µM).

As to `CCCCCCCCCOc1ccc(F)c(C(=N)N)c1F` [Compound 107, 2,6-difluoro-3-(nonyloxy)benzenecarboximidamide], the minimal inhibitory concentration (MIC) lay within 4 to 16 µg/mL (≈ 13.4 to 53.6 µM).

For `NC(=O)c1c(F)ccc(OCCCc2nc3cc(Cl)ccc3s2)c1F` [Compound 109, 3-[3-(5-chloro-1,3-benzothiazol-2-yl)propoxy]-2,6-difluorobenzamide], the minimal inhibitory concentration (MIC) was 1 to 4 µg/mL (≈ 2.61 to 10.4 µM).
